This is an account of results in publication PMC10443802, “Targeting a xenobiotic transporter to ameliorate vincristine-induced sensory neuropathy” (JCI Insight, 2023).

In one data set the target is T1, mOATP1B2 (Mus musculus, UniProt Q9JJL3).
T1 sequence (Q9JJL3 1-689): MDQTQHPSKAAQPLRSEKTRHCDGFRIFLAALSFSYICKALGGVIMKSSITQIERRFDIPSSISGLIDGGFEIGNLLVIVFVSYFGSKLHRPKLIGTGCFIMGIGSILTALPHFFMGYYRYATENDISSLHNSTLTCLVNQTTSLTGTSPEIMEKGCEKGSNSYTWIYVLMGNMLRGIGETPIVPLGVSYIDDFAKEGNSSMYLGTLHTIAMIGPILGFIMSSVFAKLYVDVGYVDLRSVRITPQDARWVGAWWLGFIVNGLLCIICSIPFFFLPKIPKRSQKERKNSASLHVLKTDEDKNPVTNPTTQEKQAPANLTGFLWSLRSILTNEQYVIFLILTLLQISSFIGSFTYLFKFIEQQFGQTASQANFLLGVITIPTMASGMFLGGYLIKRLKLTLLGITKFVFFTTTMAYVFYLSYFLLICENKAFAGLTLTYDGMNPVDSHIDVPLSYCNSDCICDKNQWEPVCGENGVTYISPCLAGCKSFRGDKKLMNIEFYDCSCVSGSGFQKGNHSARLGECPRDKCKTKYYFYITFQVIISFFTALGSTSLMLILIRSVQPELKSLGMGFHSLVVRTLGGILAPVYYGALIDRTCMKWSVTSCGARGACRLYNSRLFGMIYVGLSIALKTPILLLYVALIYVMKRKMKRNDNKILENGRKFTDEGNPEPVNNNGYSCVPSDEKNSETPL
As to the kind of experiment: Inhibition of vincristine uptake in HEK293 cells overexpressing mOATP1B2. The format is cell-based. Conditions: HEK293 mOATP1B2; inhibitor 15 min pre-treatment.

Data set [1] deals with mice.
The nature of data set [2]: Nilotinib levels in liver and DRG of mice. The conditions noted are these: OATP1B2(-/-) mice; for concentration at […]: DBA/1LacJ, mouse, liver, oral, Liver nilotinib. The format is in vivo, mouse.
Protocol: Pharmacokinetic studies. Pharmacokinetic studies were performed following an established protocol
0.5% hydroxypropyl-methylcellulose in water) was administered at a dose of 10 mg/kg . Serial whole blood
points, from the retro-orbital sinus vein for the subsequent two time-points, and cardiac puncture at the terminal time-point. Blood samples were centrifuged at 11,000 rpm for 5 min, and the plasma supernatants collected and stored at -80°C until analysis by a validated method based on reversed -phase liquid chromatography coupled to tandem mass-spectrometric detection (LC-MS/MS).
mg/kg or 100 mg/kg, and after 1.5 h, plasma, liver, and whole DRG were collected. All plasma and tissue specimens were stored at -80°C until further processing.
(§1) injection at a dose of 1 mg/kg. Whole blood samples were collected 0.08, 0.25, 0.5, 1, and 4 h, and livers were collected at the final time point.
Finally, the beads were removed, and the homogenized samples were stored at -80°C until analysis by LC-MS/MS.
(§2) Pharmacokinetic parameters were calculated by non -compartmental analysis using Phoenix WinNonlin version 8.0 (Certara). Peak plasma concentration (C max) was determined by visual inspection of the data from the concentration-time curves. The linear trapezoidal rule was used to obtain the area under the plasma concentration-time curve (AUC), and drug levels in tissues were corrected for
Determination of drug levels.
(§3) Quantiva triple quadrupole mass spectrometer from Thermo Fisher Scientific was used for LC-MS/MS
An Accucore aQ column (150 × 2.1 mm, dp = 2.6 μm, Thermo Fisher Scientific) was protected
(§4) volume was 5.0 μL. The temperature of the autosampler rack was 4°C, and the temperature of the
(§5) column was maintained at 50°C. Mobile phase A consisted of water with 0.1% (v/v) formic acid and
mobile phase B consisted of acetonitrile: methanol (1:1) with 0.1% (v/v) formic acid.
assay setting with the positive voltage applied to the ESI capillary was set at 4000 V, and the capillary
The subject of the next data set is DRG neurons. As to the kind of experiment: DRG morphology and morphometry (neuron cell area). The format is in vivo, mouse.
The test system of the next data set is OATP1B-type transporters. Conditions: read-out: IC50, inhibition of OATP1B-mediated transport; cited from earlier work.
Data set [3] concerns mice. As to the kind of experiment: Thermal hyperalgesia, Hargreaves test (paw withdrawal latency).
Data set [4] in a line: Vincristine accumulation in DRG and liver (tissue to plasma AUC ratio).
Protocol: as §1
specimens were stored at -80°C until further processing.
stainless steel bead (Qiagen) and processed for 4 min at 40 Hz. Finally, the beads were removed, and the homogenized samples were stored at -80°C until analysis by LC-MS/MS.
as §2, §3
analysis. An Accucore aQ column (150 × 2.1 mm, dp = 2.6 μm, Thermo Fisher Scientific) was protected
as §4, §5
mobile phase B consisted of acetonitrile: methanol (1:1) with 0.1% (v/v) formic acid. The total run time […]
Precursor molecular ions and product ions were recorded for confirmation and
quantification was 5 ng/mL. […]
The subject of data set [5] is mice. As to the kind of experiment: Nerve conduction studies (sciatic/digital and caudal nerve action potential amplitude and conduction velocity).
The target in the next data set is rASBT (Rattus norvegicus, UniProt Q62633). As to the kind of experiment: Vincristine uptake screen, HeLa cells overexpressing rASBT. The format is in vitro ADME. As for the experimental part: Relative uptake is expressed as percentage change compared with empty vector controls (n = 4–14 per group). […] Human OATP1B1 and OATP1B3 transporter–overexpressed cells were used as positive controls; empty vector controls were used as the negative control. […] Mechanical allodynia (C), thermal hyperalgesia (D), and sciatic nerve maximal action potential amplitudes (E) are expressed as percentage change relative to baseline values (n = 6–8 per group). Statistical analysis was performed using a 2-way ANOVA with Bonferroni’s post hoc test. **P < 0.01, ***P < 0.001, ****P < 0.0001, compared with baseline values. […] Data are shown as mean ± SEM. […]
transfected with transporters of interest, including hOAT1, hOAT3, hOAT4, hOATP1A2, hOATP3A1, hOATP4A1, hOATP5A1, hOATP1C1, hOATP1B1, hOATP1B3, hOATP2B1, hOCT1, hOCT2, hOCTN1, hOCTN2, hASBT, hNTCP, hNPT1, hMATE1, hOSTα/β, hPEPT1, hPEPT2, rOatp1a1, rOatp1a4, rOatp1a5, rOatp1b2, rNtcp, rAsbt, rOat1, and rOct1. Cells were transfected with expression plasmid or vector control lacking any insert using Lipofectin reagent (Invitrogen). Sixteen hours thereafter, cells were washed with transport media (OPTIMEM, Invitrogen) and treated with radiolabeled drug. […] The cellular radioactivity was quantified by liquid scintillation counting as described above. […]

A further data set relates to THP1. Description: Cytotoxicity of vincristine with or without nilotinib, MTT assay, THP1. The format is cell-based, human. Conditions: individual replicates.
Setting [6] is: WT mice, nilotinib 100 mg/kg p.o. 30 min before each vincristine 1 mg/kg, 4 weeks.
The mark [7] stands for this setting: OATP1B2(-/-) mice + Nilotinib, Baseline.
The mark [8] stands for this setting: OATP1B2(-/-) mice + Nilotinib, Week 4.
Where [9] appears, read: Wild-type mice + Nilotinib, Baseline.
Setting [10] is: Wild-type mice + Nilotinib, Week 4.
The mark [11] stands for this setting: KO (OATP1B2-/-) mice, vincristine 1 mg/kg weekly i.p. + vehicle pretreatment, 4 weeks.
Where [12] appears, read: OATP1B2(-/-) mice, vincristine 1 mg/kg weekly, Week 4.

Where “and” joins values, the source holds several entries; their conditions need not be identical. Identical values can stand only once.

Chain of rASBT (Q62633 whole entry): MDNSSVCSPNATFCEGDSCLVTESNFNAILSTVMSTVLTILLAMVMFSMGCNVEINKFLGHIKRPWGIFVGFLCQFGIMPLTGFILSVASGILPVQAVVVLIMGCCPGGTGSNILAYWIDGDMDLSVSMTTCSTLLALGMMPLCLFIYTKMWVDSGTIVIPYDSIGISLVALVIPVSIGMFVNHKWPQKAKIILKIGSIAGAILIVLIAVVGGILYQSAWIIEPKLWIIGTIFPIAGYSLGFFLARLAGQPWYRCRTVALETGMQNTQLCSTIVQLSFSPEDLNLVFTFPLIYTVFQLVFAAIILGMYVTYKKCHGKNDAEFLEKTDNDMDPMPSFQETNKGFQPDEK

As a reminder, the IC50 is the concentration at which inhibition is half-maximal. For the compound `Cc1cn(-c2cc(NC(=O)c3ccc(C)c(Nc4nccc(-c5cccnc5)n4)c3)cc(C(F)(F)F)c2)cn1` [Nilotinib, nilotinib], the “Vincristine uptake (% of vehicle)” value on mOATP1B2 was 73.0702 % of vehicle and 58.7366 % of vehicle and 55.2034 % of vehicle and 63.6149 % of vehicle and 58.7604 % of vehicle and 51.7599 % of vehicle. Further, the “Protection against vincristine-associated changes in mechanical allodynia, thermal hyperalgesia and sciatic nerve maximal AMP” value in the data set on mice [1] (100 mg/kg orally 30 minutes before each of 4 vincristine doses of 1 mg/kg) is “effectively protected against treatment-associated changes”. Also, the concentration at […] in data set [2] (25 mg/kg) was determined as 11900 ng/g; in data set [2] (100 mg/kg) it was 33700 ng/g. Besides, the Liver nilotinib is 14.24 ng/mg tissue and 15.56 ng/mg tissue in data set [2] (25mg/kg); 30.37 ng/mg tissue and 41.94 ng/mg tissue in data set [2] (100mg/kg). The “Cell area changes (%Δ from baseline)” value in the data set on DRG neurons (OATP1B2(-/-) mice + Nilotinib) is 0.695% and -1.012% and -0.86%; in the data set on DRG neurons (Wild-type mice + Nilotinib), 0.351% and -0.994% and -0.034%. For the same compound, the “Prevention of vincristine-induced reduction in cell size of DRG neurons” value with DRG neurons (nilotinib 100 mg/kg p.o. pretreatment) is recorded as “could be prevented by pretreatment with nilotinib”. Besides, the half-maximal inhibitory concentration (IC50) in the data set on OATP1B-type transporters is roughly 1000 nM. Besides, the “Paw withdrawal latency (%Δ from baseline)” value was 81.1 %Δ from baseline and 88.2 %Δ from baseline and 119.5 %Δ from baseline and 100.4 %Δ from baseline and 93.8 %Δ from baseline and 69.5 %Δ from baseline in the data set on mice [3] (KO (OATP1B2-/-) mice, nilotinib 100 mg/kg p.o. 30 min before each vincristine 1 mg/kg, 4 weeks); 137.5 %Δ from baseline and 110.5 %Δ from baseline and 107.4 %Δ from baseline and 126 %Δ from baseline and 95.3 %Δ from baseline and 92.7 %Δ from baseline in the data set on mice [3] (setting [6]). For the same compound, the “Influence of pretreatment on accumulation of vincristine in whole DRG samples” value in [4] (nilotinib 100 mg/kg, vincristine 1 mg/kg) is “significantly diminished by nilotinib”. Besides, the Caudal nerve amplitude in the data set on mice [5] (setting [7]) was 95.6% and 93.7% and 108.6% and 106% and 98.1%; with mice [5] (setting [8]), 89.3% and 94% and 95.6% and 104.4% and 86.9%; in the data set on mice [5] (setting [9]), 120.6% and 88.2% and 115.9% and 89.2% and 91.2% and 94.8%; in the data set with mice [5] (setting [10]), 63.6% and 79.9% and 91.5% and 110.8% and 56.5% and 79.7%. In addition, the Caudal nerve velocity in the data set on mice [5] (setting [7]) is 102.8% and 100.9% and 101.1% and 98% and 97.3%; in the data set on mice [5] (setting [8]), 97.1% and 98.5% and 95% and 100.3% and 98.1% and 98.7%; in the data set on mice [5] (setting [9]), 98.2% and 90.4% and 108% and 104.2% and 102% and 97.3%; with mice [5] (setting [10]), 92.7% and 93.3% and 98.1% and 103.4% and 110.3% and 95.5%. Also, the Sciatic nerve amplitude with mice [5] (setting [7]) was 114.4% and 121.2% and 118.7% and 82.8% and 93.6% and 69.3%; in the data set on mice [5] (setting [6]), 108.6 %Δ from baseline and 88.8 %Δ from baseline and 77.9 %Δ from baseline and 89.5 %Δ from baseline and 98.8 %Δ from baseline and 89.1 %Δ from baseline; with mice [5] (setting [9]) it was 97.8% and 93% and 117% and 84.6% and 113.5% and 94%; in the data set on mice [5] (setting [10]), 89.1% and 108.6% and 88.8% and 77.9% and 89.5% and 98.8%. Besides, the Sciatic nerve velocity in the data set with mice [5] (setting [7]) is 95.7% and 106.4% and 97.8% and 107.3% and 98.7% and 94.1%; in the data set on mice [5] (setting [8]) it was 92.3% and 108.6% and 101.5% and 100.5% and 93.7% and 102.8%; with mice [5] (setting [9]) it was 102.2% and 108.4% and 96.7% and 95.6% and 94.8%; in the data set on mice [5] (setting [10]), 101.8% and 112.7% and 95.6% and 97.9% and 93.4% and 98.9%.
Turning to `CC[C@]1(O)C[C@H]2CN(CCc3c([nH]c4ccccc34)[C@@](C(=O)OC)(c3cc4c(cc3OC)N(C=O)[C@H]3[C@@](O)(C(=O)OC)[C@H](OC(C)=O)[C@]5(CC)C=CCN6CC[C@]43[C@@H]65)C2)C1` [Vincristine, vincristine], the “Vincristine uptake (% of vector control)” value on rASBT was 95.00 % of vector control and 78.00 % of vector control and 81.00 % of vector control and 90.00 % of vector control and 114.00 % of vector control and 85.00 % of vector control and 118.00 % of vector control. Also, the “Protection against treatment-related mechanical allodynia by OATP1B2 deficiency” value with mice [1] (mouse, in vivo) is “protection against treatment-related mechanical allodynia was only observed”. The IC50 in the data set on THP1 (Homo sapiens, THP-1, THP1 cells, vincristine + 1μM Nilotinib) was 11 nM; in the data set on THP1 (Homo sapiens, THP-1, THP1 cells, vincristine alone) it was 15.4 nM; in the data set on THP1 (THP1 cells, vincristine alone), 14.4 nM (2×) and 15.4 nM and 15.1 nM and 14.6 nM and 10.5 nM and 10.2 nM and 16.9 nM. Further, the “Cell size of DRG neurons” value in the data set on DRG neurons (WT mice, vincristine 1 mg/kg weekly, 4 weeks) was “reduction in cell size of DRG neurons”. Further, the “Paw withdrawal latency (%Δ from baseline)” value with mice [3] (setting [11]) is 115.4 %Δ from baseline and 102.8 %Δ from baseline and 99.5 %Δ from baseline and 93.2 %Δ from baseline and 105.4 %Δ from baseline and 88 %Δ from baseline and 77.4 %Δ from baseline; in the data set on mice [3] (setting [12]) it was 94.3 %Δ from baseline and 92.7 %Δ from baseline and 101.2 %Δ from baseline and 102.2 %Δ from baseline and 111.0 %Δ from baseline and 84.6 %Δ from baseline and 112.1 %Δ from baseline; with mice [3] (WT mice, vincristine 1 mg/kg weekly i.p. + vehicle pretreatment, 4 weeks), 66.8 %Δ from baseline and 70.6 %Δ from baseline and 94.2 %Δ from baseline and 54.6 %Δ from baseline and 68.3 %Δ from baseline and 64.2 %Δ from baseline and 82.5 %Δ from baseline; with mice [3] (Wild-type mice, vincristine 1 mg/kg weekly, Week 4) it was 61.8 %Δ from baseline and 39.1 %Δ from baseline and 56.0 %Δ from baseline and 42.8 %Δ from baseline and 56.3 %Δ from baseline and 55.6 %Δ from baseline. For the same compound, the “Uptake of vincristine in liver and whole DRG samples” value in [4] (OATP1B2-deficient vs WT mice, LC/MS/MS or MALDI-MS imaging) was “decreased uptake of vincristine”. Besides, the Sciatic nerve amplitude is 107.5 %Δ from baseline and 81.9 %Δ from baseline and 90.9 %Δ from baseline and 97.4 %Δ from baseline and 87.3 %Δ from baseline and 91.9 %Δ from baseline and 109.9 %Δ from baseline with mice [5] (setting [11]); 90.9 %Δ from baseline and 97.4 %Δ from baseline and 87.3 %Δ from baseline and 91.9 %Δ from baseline and 109.9 %Δ from baseline and 107.5 %Δ from baseline and 81.9 %Δ from baseline with mice [5] (setting [12]).
